Assays:
Type in all cases: physicochemical
[1] = Relative volatility, separation of m-xylene from o-xylene, vapor-liquid equilibrium still; conditions: for effectiveness in separation of m-xylene from o-xylene: in words
Procedure: The data in Table 2 was obtained in a vapor-liquid equilibrium still.
Ten grams of m-xylene, 30 grams of o-xylene and 20 grams of cyclododecanol were charged to a vapor-liquid equilibrium still and refluxed for three hours.
Ten grams of m-xylene, 30 grams of o-xylene, 20 grams of cyclododecanol and ten grams of diisobutyl carbinol were charged to the vapor-liquid equilibrium still and refluxed for 14 hours.

[2] = Relative volatility, separation of p-xylene from m-xylene, vapor-liquid equilibrium still; conditions: for Relative Volatility: vapor-liquid equilibrium still; for effectiveness in bringing m-xylene out as the overhead from p-xylene: alcohols
Text: The data in Table 5 was obtained in a vapor-liquid equilibrium still.
Twenty grams of m-xylene, 60 grams of p-xylene, 30 grams of cyclododecanol and 15 grams of benzyl alcohol were charged to the vapor-liquid equilibrium still and refluxed for five hours.
Twenty grams of m-xylene, 60 grams of p-xylene, 30 grams of cyclododecanol and 15 grams of diisobutyl carbinol were charged to the vapor-liquid equilibrium still and refluxed for four hours.

[3] = Extractive distillation run in glass perforated plate rectification column, m-xylene from o-xylene; conditions: for Relative Volatility: m-xylene from o-xylene, 7.3 theoretical plates, Fenske equation
Procedure: It yielded a relative volatility of 1.31 after one hour and 1.37 after two hours of continuous operation.
225 grams of m-xylene and 75 grams of o-xylene were placed in the stillpot of a glass perforated plate rectification column containing 7.3 theoretical plates, and heated. When refluxing began, an extractive agent comprising cyclododecanol was pumped into the column at a rate of 15 ml/min. The temperature of the extractive agent as it entered the column was 95° C. After establishing the feed rate of the extractive agent, the heat input to the column was adjusted to give a total reflux rate of 40 ml/min. After one hour of operation, overhead and bottoms samples of approximately two ml. were collected and analysed by gas chromatography. The overhead analysis was 95.5% m-xylene, 4.5% o-xylene and the bottoms analysis was 75% m-xylene, 25% o-xylene. Using these compositions in the Fenske equation, with the number of theoretical plates in the column being 7.3, gave an average relative volatility of 1.31 for each theoretical plate. After a total of two hours of continuous operation, samples of overhead and bottoms were again taken and analysed. The overhead analysis was 96.5% m-xylene, 3.5% o-xylene; the bottoms analysis was 73.6% m-xylene, 26.4% o-xylene which is a relative volatility of 1.37.

[4] = m-xylene to o-xylene, effective agents (alone or mixed as labelled), vapor-liquid equilibrium still
[5] = * brings the m-xylene out as overhead (m-xylene to p-xylene)
[6] = m-xylene from o-xylene, ineffective agents when mixed with cyclododecanol
[7] = p-xylene from m-xylene, in words

COC(=O)c1ccccc1O [methyl salicylate]
effectiveness in separation of m-xylene from o-xylene ([1]; mixed with cyclododecanol): effective relative volatilities
effectiveness in separation of m-xylene from o-xylene ([1]; used alone): relatively ineffective

CCCCCCCCCCCO [Undecyl alcohol]
effectiveness in separation of m-xylene from o-xylene ([1]; alcohols): effective
Relative Volatility [1, 4]: 1.40
Relative Volatility [2, 5]: 1.14
effectiveness in bringing m-xylene out as the overhead from p-xylene ([2]; in words): effective in bringing m-xylene out as the overhead

O=C(OCc1ccccc1)c1ccccc1 [Benzyl benzoate]
Relative Volatility [1, 6]: 1.0

CCCCCCC(C)O (stereo not drawn) [2-Octanol]
effectiveness in separation of m-xylene from o-xylene ([1]; alcohols): effective
Relative Volatility [1, 4]: 1.30

CCC(=O)c1ccccc1 [Propiophenone]
Relative Volatility [1, 6]: 0.8
enhancement of relative volatility when mixed with cyclododecanol [2, 7]: enhance the relative volatility

CC(=O)c1ccccc1 [acetophenone]
effectiveness in separation of m-xylene from o-xylene ([1]; mixed with cyclododecanol): effective relative volatilities
effectiveness in separation of m-xylene from o-xylene ([1]; used alone): relatively ineffective

OCCc1ccccc1 [Phenethyl alcohol]
Relative Volatility [1, 6]: 1.29
enhancement of relative volatility when mixed with cyclododecanol [2, 7]: enhance the relative volatility

CCCCC(CC)COC(C)=O (stereo not drawn) [2-Ethyl hexyl acetate]
Relative Volatility [1, 6]: 1.22

CCCCOCCOC(C)=O [Ethylene glycol butyl ether acetate]
Relative Volatility [1, 6]: 1.1
enhancement of relative volatility when mixed with cyclododecanol [2, 7]: enhance the relative volatility

CC(C)CCCCCO [Isooctanol (U.C.), Isooctanol]
Relative Volatility [1, 4]: 1.27

CCCCC(CC)CO (stereo not drawn) [2-Ethyl-1-hexanol]
Relative Volatility [1, 6]: 1.29

CCCCCCCCCO [1-Nonanol]
effectiveness in separation of m-xylene from o-xylene ([1]; alcohols): effective
Relative Volatility [2, 5]: 1.14
effectiveness in bringing m-xylene out as the overhead from p-xylene ([2]; in words): effective in bringing m-xylene out as the overhead

CC(C)CCCCCCCO [Isodecanol]
effectiveness in separation of m-xylene from o-xylene ([1]; alcohols): effective
effectiveness in bringing m-xylene out as the overhead from p-xylene ([2]; in words): effective in bringing m-xylene out as the overhead

CCOC(=O)c1ccccc1O [ethyl salicylate]
effectiveness in separation of m-xylene from o-xylene ([1]; mixed with cyclododecanol): effective relative volatilities
effectiveness in separation of m-xylene from o-xylene ([1]; used alone): relatively ineffective

CCCCCCOCCOCCO [Diethylene glycol hexyl ether]
Relative Volatility [1, 6]: 0.7

CCCCOCCOCCO [diethylene glycol butyl ether]
effectiveness in separation of m-xylene from o-xylene ([1]; mixed with cyclododecanol): effective relative volatilities
effectiveness in separation of m-xylene from o-xylene ([1]; used alone): relatively ineffective
enhancement of relative volatility when mixed with cyclododecanol [2, 7]: enhance the relative volatility

CC(C)CCCCCCCO [Isodecanol (ASHLAND), Isodecanol]
Relative Volatility [1, 4]: 1.27

OCC1CCCO1 (stereo not drawn) [tetrahydrofurfuryl alcohol]
enhancement of relative volatility when mixed with cyclododecanol [2, 7]: enhance the relative volatility

CN(C)C=O [dimethylformamide]
enhancement of relative volatility when mixed with cyclododecanol [2, 7]: enhance the relative volatility

CCOCCOCCO [diethylene glycol ethyl ether]
effectiveness in separation of m-xylene from o-xylene ([1]; mixed with cyclododecanol): effective relative volatilities
effectiveness in separation of m-xylene from o-xylene ([1]; used alone): relatively ineffective

CCCCCCCCO [1-Octanol]
effectiveness in separation of m-xylene from o-xylene ([1]; alcohols): effective
Relative Volatility [1, 4]: 1.38
enhancement of relative volatility when mixed with cyclododecanol [2, 7]: enhance the relative volatility

COC(=O)c1ccccc1 [Methyl benzoate]
Relative Volatility [1, 6]: 1.0

CC(C)CC(O)CC(C)C [Diisobutyl carbinol]
effectiveness in separation of m-xylene from o-xylene ([1]; alcohols): effective
Relative Volatility [1, 4]: 1.27
Relative Volatility [2, 5]: 1.23
effectiveness in bringing m-xylene out as the overhead from p-xylene ([2]; in words): effective in bringing m-xylene out as the overhead
enhancement of relative volatility when mixed with cyclododecanol [2, 7]: enhance the relative volatility

CC(C)CCCCCCO [Isononyl alcohol (EXXON), Isononyl alcohol]
effectiveness in separation of m-xylene from o-xylene ([1]; alcohols): effective
Relative Volatility [1, 4]: 1.22

CC(=O)Oc1ccccc1 [phenyl acetate]
effectiveness in separation of m-xylene from o-xylene ([1]; mixed with cyclododecanol): effective relative volatilities
effectiveness in separation of m-xylene from o-xylene ([1]; used alone): relatively ineffective

CC1COC(=O)O1 (stereo not drawn) [Propylene carbonate]
Relative Volatility [1, 6]: 1.07

Cc1ccccc1[N+](=O)[O-] [2-Nitrotouene]
Relative Volatility [1, 6]: 1.25

CCCCOC(=O)CCC [Butyl butyrate]
Relative Volatility [1]: 1.26

CC(C)CCCCCCCO [Isodecanol (EXXON), Isodecanol]
Relative Volatility [1, 4]: 1.18

CCCCCCCCCCCCO [1-Dodecanol]
effectiveness in separation of m-xylene from o-xylene ([1]; alcohols): effective
Relative Volatility [1, 4]: 1.31
Relative Volatility [2, 5]: 1.11
effectiveness in bringing m-xylene out as the overhead from p-xylene ([2]; in words): effective in bringing m-xylene out as the overhead

OC1CCCCCCCCCCC1 [Cyclododecanol]
effectiveness in separation of m-xylene from o-xylene ([1]; alcohols): effective
Relative Volatility [1, 4]: 1.37
liquid composition, m-xylene ([1]; vapor-liquid equilibrium still): 23.6%
liquid composition, o-xylene ([1]; vapor-liquid equilibrium still): 76.4%
vapor composition, m-xylene ([1]; vapor-liquid equilibrium still): 29.8%
vapor composition, o-xylene ([1]; vapor-liquid equilibrium still): 70.2%
xylene brought out as overhead product [2, 7]: brings out the p-xylene as overhead product
Relative Volatility ([2]; p-xylene to m-xylene (no asterisk)): 1.11
Weight % m-Xylene ([3]; bottoms, 1 hour): 75%
Weight % o-Xylene ([3]; bottoms, 1 hour): 25%
Weight % m-Xylene ([3]; bottoms, 2 hours): 73.6%
Weight % o-Xylene ([3]; bottoms, 2 hours): 26.4%
Relative Volatility ([3]; 1 hour): 1.31
Relative Volatility ([3]; 2 hours): 1.37
Weight % m-Xylene ([3]; overhead, 1 hour): 95.5%
Weight % o-Xylene ([3]; overhead, 1 hour): 4.5%
Weight % m-Xylene ([3]; overhead, 2 hours): 96.5%
Weight % o-Xylene ([3]; overhead, 2 hours): 3.5%

CCCCCCCCCCO [1-Decanol]
effectiveness in separation of m-xylene from o-xylene ([1]; alcohols): effective
effectiveness in bringing m-xylene out as the overhead from p-xylene ([2]; in words): effective in bringing m-xylene out as the overhead

O=S1(=O)CCCC1 [sulfolane]
effectiveness in separation of m-xylene from o-xylene ([1]; mixed with cyclododecanol): effective relative volatilities
effectiveness in separation of m-xylene from o-xylene ([1]; used alone): relatively ineffective

CCOC(=O)CC(=O)OCC [Diethyl malonate]
Relative Volatility [1, 6]: 1.23

CC(C)CCCCCO [isooctanol]
effectiveness in separation of m-xylene from o-xylene ([1]; alcohols): effective

C[S+](C)[O-] [dimethylsulfoxide]
effectiveness in separation of m-xylene from o-xylene ([1]; mixed with cyclododecanol): effective relative volatilities
effectiveness in separation of m-xylene from o-xylene ([1]; used alone): relatively ineffective
enhancement of relative volatility when mixed with cyclododecanol [2, 7]: enhance the relative volatility

OCc1ccccc1 [Benzyl alcohol]
Relative Volatility [2, 5]: 1.19
effectiveness in bringing m-xylene out as the overhead from p-xylene ([2]; in words): effective in bringing m-xylene out as the overhead
enhancement of relative volatility when mixed with cyclododecanol [2, 7]: enhance the relative volatility
